Measurements as given in patent publication US8461149B2, “Compounds useful as protein kinase inhibitors” (Vertex Pharmaceuticals Incorporated, priority 2007, dated 2013).

biological target: PLK1 (Homo sapiens, UniProt P53350); test: PLK1 inhibition assay (radioactive-phosphate incorporation); assay type: biochemical; conditions: 150 μM ATP, 300 μM peptide, 4 nM PLK1, 90 minutes, 25° C., read-out: Ki in the radioactive incorporation assay (Ki(app))
Description: The compounds of the present invention are evaluated as inhibitors of human PLK kinase using the following assays.
Compounds were screened for their ability to inhibit PLK1 using a radioactive-phosphate incorporation assay. Assays were carried out in a mixture of 25 mM HEPES (pH 7.5), 10 mM MgCl2, 0.1% BSA, and 2 mM DTT. Final substrate concentrations were 150 μM (350 μM for determining values of less than 1 nM) [γ-33P]ATP (115 mCi 33P ATP/mmol ATP, Amersham Pharmacia Biotech/Sigma Chemicals) and 300 μM (450 μM for determining values of <1 nM) peptide (KKKISDELMDATFADQEAK) (SEQ ID NO:1). Assays were carried out at 25° C. in the presence of 4 nM (1 nM for determining values of less than 1 nM) PLK1. An assay stock buffer solution was prepared containing all of the reagents listed above, with the exception of ATP and the test compound of interest. 30 μL of the stock solution was placed in a 96 well plate followed by addition of 2 μL of DMSO stock containing serial dilutions of the test compound (typically starting from a final concentration of 10 μM with 2-fold serial dilutions) in duplicate (final DMSO concentration 5%). The plate was pre-incubated for 10 minutes at 25° C. and the reaction initiated by addition of 8 μL [γ-33P]ATP (final concentration 150 μM (350 μM for determining values of less than 1 nM))).
The reaction was stopped after 90 minutes (240 minutes for determining values of less than 1 nM) by the addition of 100 μL 0.14M phosphoric acid. A multiscreen phosphocellulose filter 96-well plate (Millipore, Cat. No. MAPHN0B50) was pretreated with 100 μL 0.2M phosphoric acid prior to the addition of 125 μL of the stopped assay mixture. The plate was washed with 200 μL 0.2M phosphoric acid for 4 times. After drying, 100 μL Optiphase ‘SuperMix’ liquid scintillation cocktail (Perkin Elmer) was added to the well prior to scintillation counting (1450 Microbeta Liquid Scintillation Counter, Wallac).
After removing mean background values for all of the data points, Ki(app) data were calculated from non-linear regression analysis of the initial rate data using the Prism software package (GraphPad Prism version 3.0cx for Macintosh, GraphPad Software, San Diego Calif., USA).

Sequence of PLK1 (P53350 whole entry): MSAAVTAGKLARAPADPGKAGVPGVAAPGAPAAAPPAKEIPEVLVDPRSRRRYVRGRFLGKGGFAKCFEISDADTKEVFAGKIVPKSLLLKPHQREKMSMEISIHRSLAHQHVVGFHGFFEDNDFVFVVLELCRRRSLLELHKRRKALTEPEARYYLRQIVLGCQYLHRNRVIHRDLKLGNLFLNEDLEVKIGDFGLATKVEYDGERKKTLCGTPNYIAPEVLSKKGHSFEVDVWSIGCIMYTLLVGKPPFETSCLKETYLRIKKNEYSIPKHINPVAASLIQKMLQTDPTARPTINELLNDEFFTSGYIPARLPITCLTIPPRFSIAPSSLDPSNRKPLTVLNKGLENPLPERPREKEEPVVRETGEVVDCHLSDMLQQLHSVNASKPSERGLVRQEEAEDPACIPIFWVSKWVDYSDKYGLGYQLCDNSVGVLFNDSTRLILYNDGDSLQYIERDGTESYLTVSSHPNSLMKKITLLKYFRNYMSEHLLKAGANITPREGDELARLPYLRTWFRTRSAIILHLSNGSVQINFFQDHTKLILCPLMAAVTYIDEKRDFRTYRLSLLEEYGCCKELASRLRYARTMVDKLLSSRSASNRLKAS

| Ki [nM] | SMILES |
| --- | --- |
| 1 to 10 | COc1cc(C(=O)NC2CC2)ccc1Nc1ncc2c(n1)N([C@@H]1CCC(F)(F)C1)CC(C)(C)C(=O)N2C [Compound I-1, (R)—N-cyclopropyl-4-(9-(3,3-difluorocyclopentyl)-5,7,7-trimethyl-6-oxo-6,7,8,9-tetrahydro-5H-pyrimido[4,5-b][1,4]diazepin-2-ylamino)-3-methoxybenzamide] |
| 1 to 10 | COc1cc(C(=O)NC2CC2)ccc1Nc1ncc2c(n1)N([C@@H]1CCC(F)(F)C1)CC1(CC1)C(=O)N2C [Compound I-4, (R)—N-cyclopropyl-4-(9′-(3,3-difluorocyclopentyl)-5′-methyl-6′-oxo-5′,6′,8′,9′-tetrahydrospiro[cyclopropane-1,7′-pyrimido[4,5-b][1,4]diazepine]-2′-ylamino)-3-methoxybenzamide] |
| 1 to 10 | COc1cc(C(=O)N[C@@H]2CCC(F)(F)C2)ccc1Nc1ncc2c(n1)N([C@@H]1CCC(F)(F)C1)CC1(CC1)C(=O)N2C [Compound I-5, N-((R)-3,3-difluorocyclopentyl)-4-(9′-((R)-3,3-difluorocyclopentyl)-5′-methyl-6′-oxo-5′,6′,8′,9′-tetrahydrospiro[cyclopropane-1,7′-pyrimido[4,5-b][1,4]diazepine]-2′-ylamino)-3-methoxybenzamide] |

same assay, conditions: conditions for values of less than 1 nM: 350 μM ATP, 450 μM peptide, 1 nM PLK1, 240 minutes, 25° C., read-out: Ki in the radioactive incorporation assay (Ki(app))

| SMILES | Ki [nM] |
| --- | --- |
| COc1cc(C(=O)N[C@@H]2CC[C@@H](F)C2)ccc1Nc1ncc2c(n1)N([C@@H]1CCC(F)(F)C1)CC(C)(C)C(=O)N2C [Compound I-2, 4-(9-((R)-3,3-difluorocyclopentyl)-5,7,7-trimethyl-6-oxo-6,7,8,9-tetrahydro-5H-pyrimido[4,5-b][1,4]diazepin-2-ylamino)-N-((1R,3R)-3-fluorocyclopentyl)-3-methoxybenzamide] | < 1 |
| COc1cc(C(=O)N[C@@H]2CCC(F)(F)C2)ccc1Nc1ncc2c(n1)N([C@@H]1CCC(F)(F)C1)CC(C)(C)C(=O)N2C [Compound I-3, N-((R)-3,3-difluorocyclopentyl)-4-(9-((R)-3,3-difluorocyclopentyl)-5,7,7-trimethyl-6-oxo-6,7,8,9-tetrahydro-5H-pyrimido[4,5-b][1,4]diazepin-2-ylamino)-3-methoxybenzamide] | < 1 |
| CCNC(=O)c1ccc(Nc2ncc3c(n2)N([C@@H]2CCC(F)(F)C2)[C@H](CC)c2nncn2-3)c(OC)c1 [Compound I-6, 4-((R)-5-((R)-3,3-difluorocyclopentyl)-4-ethyl-4,5-dihydro-[1,2,4]triazolo[4,3-f]pteridin-7-ylamino)-N-ethyl-3-methoxybenzamide] | < 1 |

Continued, values first:

| Ki [nM] | SMILES |
| --- | --- |
| < 1 | CC[C@@H]1c2nncn2-c2cnc(Nc3ccc(C(=O)NC4CC4)cc3OC)nc2N1[C@@H]1CCC(F)(F)C1 [Compound I-7, N-cyclopropyl-4-((R)-5-((R)-3,3-difluorocyclopentyl)-4-ethyl-4,5-dihydro-[1,2,4]triazolo[4,3-f]pteridin-7-ylamino)-3-methoxybenzamide] |
| < 1 | CCNC(=O)c1ccc(Nc2ncc3c(n2)N([C@@H]2CCC(F)(F)C2)[C@H](CC)C(=O)N3C)c(OC)c1 [Compound I-8, 4-((R)-8-((R)-3,3-difluorocyclopentyl)-7-ethyl-5-methyl-6-oxo-5,6,7,8-tetrahydropteridin-2-ylamino)-N-ethyl-3-methoxybenzamide] |
| < 1 | CC[C@@H]1C(=O)N(C)c2cnc(Nc3ccc(C(=O)NC4CC4)cc3OC)nc2N1[C@@H]1CCC(F)(F)C1 [Compound I-9, N-cyclopropyl-4-((R)-8-((R)-3,3-difluorocyclopentyl)-7-ethyl-5-methyl-6-oxo-5,6,7,8-tetrahydropteridin-2-ylamino)-3-methoxybenzamide] |
